Source: patent publication US20110306622A1, “METHODS OF TREATING HEMATOLOGICAL DISORDERS WITH QUINAZOLINONE COMPOUNDS IN SELECTED SUBJECTS” (Calitoga Pharmaceuticals, Inc., priority 2010, published 2011)

Key:
PI3Kγ = target: T1, PI3Kγ (Mus musculus, UniProt Q9JHG7); experiment: Isoform specific cell-based assay: C5a induced pAKT in monocyte cell line (RAW-264); conditions: n = 11
T1 construct: endogenous in cells; host or cells: RAW-264 monocyte cell line
Method: (§1) Swiss-3T3 fibroblasts and RAW-264 were seeded on a 96-well tissue culture plate and allowed to reach at least 90% confluency. […] Akt phosphorylation and total AKT was detected by ELISA. Purified B-cells were treated with either vehicle or serial dilutions of compound I for 30 minutes at room temperature before the addition of purified goat anti-human IgM. Results are expressed as relative [^3H] thymidine incorporation induced by IgM crosslinking.

PI3Kalpha = PI3Kalpha (Mus musculus, UniProt P42337); experiment: Isoform specific cell-based assay: PDGF induced pAKT in fibroblast cell line (Swiss-3T3); conditions: n = 12
Method: as §1

[1] = test system: BCR-induced secretion of CCL3 and CCL4 by CLL cells; experiment: BCR-induced (anti-IgM) secretion of chemokines CCL3 and CCL4 by CLL cells, ELISA of supernatants; assay type: cell-based; conditions: medium with anti-IgM plus compound, 24 hours, anti-IgM alone raised levels roughly 5 to 6 fold
[2] = test system: CCL3, CCL4 and CXCL13 chemokine levels in CLL patients; experiment: Plasma chemokine levels in CLL patients before and after one 28-day cycle of treatment (multiplexed bead suspension arrays); assay type: in vivo, human
Method: Plasma was stored at −70 degrees centigrade. Before analysis, samples were thawed overnight at 4 degrees centigrade and centrifuged at 1,500×g to remove debris. Chemokines were analyzed with commercially available multiplexed bead suspension arrays (MBA, Millipore). MBAs were analyzed using a Luminex 200 instrument and data was organized and analyzed using 3.1 xPONENT software. The plasma concentration of 14 patients with CLL was assessed at pre-dose baseline concentrations. The average plasma concentration of CCL3 (186 pg/mL) and CCL4 (303 pg/mL) at the pre-dose baseline are approximately 5 times higher in these subject compared to normal subjects. The average plasma concentration of CXCL13 (316 pg/mL) at pre-dose baseline was approximately 10 times higher than normal subjects. […] In the first week of dosing across all dose levels evaluated, the concentration of CCL3, CCL4 and CXCL13 were decreased by 2 to 5-fold. On the last day of the cycle, the plasma concentration of the chemokines was reassessed, see FIG. 1.

[3] = test system: CCL3, CCL17 and TNF-alpha in CLL patients; experiment: Clinical evaluation in CLL patients: change in plasma CCL3, CCL17 and TNF-alpha compared to decrease in lymph node size; assay type: in vivo, human; conditions: responders = lymph node decreases of 50% or greater, FIG. 10
Method: The concentration of CCL3, CCL17 and TNF-alpha were determined in the plasma samples by a bead-based ELISA technology. The resulting plasma concentrations of these factors were compared to decrease in lymph node size. Patients that had lymph node decreases of 50% or greater were designated as “responders” to the drug.

[4] = test system: CCL17, CCL22, CXCL13 and TNF-alpha levels in MCL patients; experiment: Plasma chemokine and TNF-alpha levels and tumor size in MCL patients, pre-treatment vs Day 28; assay type: in vivo, human
Method: (§2) 103 patients were enrolled in the study, including 40 with MCL and 63 with iNHL. Among patients with iNHL, all 4 subtypes were represented. Patients were heavily treated with chemoimmunotherapy. Patients had received a median of 4 prior regimens and some had received as many as 14 prior regimens. Most patients had received several types of chemoimmunotherapy for NHL. Disease was commonly refractory to available therapies.
(§3) Patients were treated over a broad range of doses of Compound A using once-per-day (QD) and twice-per-day (BID) continuous and intermittent schedules. Patients remained on therapy for protracted periods; many patients with iNHL continued on treatment beyond 12 cycles (48 weeks).
(§4) Prior to treatment, the concentration of CCL17, CCL22, CXCL13, and TNF-alpha was evaluated. On the last day of the cycle, the plasma concentration of the chemokines and TNF-alpha was re-assessed. Table 3 (for MCL) and Table 4 (for iNHL) below summarize the chemokine and TNF-alpha concentration at the baseline and at Day 28 of the cycle.

[5] = test system: CCL17, CCL22, CXCL13 and TNF-alpha levels in iNHL patients; experiment: Plasma chemokine and TNF-alpha levels and tumor size in iNHL patients, pre-treatment vs Day 28; assay type: in vivo, human
Method: as §2, §3, §4

T1 sequence (Q9JHG7 whole entry, canonical isoform): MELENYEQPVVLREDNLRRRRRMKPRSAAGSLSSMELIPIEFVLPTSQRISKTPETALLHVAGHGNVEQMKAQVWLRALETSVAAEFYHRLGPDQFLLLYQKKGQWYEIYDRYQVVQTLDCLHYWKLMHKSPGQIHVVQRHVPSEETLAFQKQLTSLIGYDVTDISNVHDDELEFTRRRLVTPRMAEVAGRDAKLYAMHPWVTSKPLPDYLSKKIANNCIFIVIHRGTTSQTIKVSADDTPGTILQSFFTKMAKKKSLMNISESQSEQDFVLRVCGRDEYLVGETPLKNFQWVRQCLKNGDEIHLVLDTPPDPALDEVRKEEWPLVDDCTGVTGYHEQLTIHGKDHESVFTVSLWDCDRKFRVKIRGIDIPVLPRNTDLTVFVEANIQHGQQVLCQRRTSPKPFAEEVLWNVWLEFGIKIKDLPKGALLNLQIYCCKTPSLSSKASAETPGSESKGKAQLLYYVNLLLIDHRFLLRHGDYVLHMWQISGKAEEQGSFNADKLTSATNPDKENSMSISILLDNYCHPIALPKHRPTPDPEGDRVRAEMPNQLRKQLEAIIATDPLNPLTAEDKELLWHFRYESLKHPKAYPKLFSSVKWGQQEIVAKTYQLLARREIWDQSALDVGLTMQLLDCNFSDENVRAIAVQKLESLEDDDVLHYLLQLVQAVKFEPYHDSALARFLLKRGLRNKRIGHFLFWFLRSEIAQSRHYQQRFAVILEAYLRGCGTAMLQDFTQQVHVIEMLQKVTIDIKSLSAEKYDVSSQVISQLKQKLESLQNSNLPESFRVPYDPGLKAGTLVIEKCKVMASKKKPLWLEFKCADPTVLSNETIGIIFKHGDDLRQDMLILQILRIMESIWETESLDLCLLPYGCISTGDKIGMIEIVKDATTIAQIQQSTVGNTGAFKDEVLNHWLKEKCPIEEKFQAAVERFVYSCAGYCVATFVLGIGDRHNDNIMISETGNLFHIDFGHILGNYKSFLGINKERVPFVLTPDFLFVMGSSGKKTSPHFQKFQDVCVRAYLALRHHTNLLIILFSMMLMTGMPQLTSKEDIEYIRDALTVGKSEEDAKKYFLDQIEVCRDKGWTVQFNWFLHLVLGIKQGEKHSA
T1 sequence (Q5SW28 whole entry partner, canonical isoform): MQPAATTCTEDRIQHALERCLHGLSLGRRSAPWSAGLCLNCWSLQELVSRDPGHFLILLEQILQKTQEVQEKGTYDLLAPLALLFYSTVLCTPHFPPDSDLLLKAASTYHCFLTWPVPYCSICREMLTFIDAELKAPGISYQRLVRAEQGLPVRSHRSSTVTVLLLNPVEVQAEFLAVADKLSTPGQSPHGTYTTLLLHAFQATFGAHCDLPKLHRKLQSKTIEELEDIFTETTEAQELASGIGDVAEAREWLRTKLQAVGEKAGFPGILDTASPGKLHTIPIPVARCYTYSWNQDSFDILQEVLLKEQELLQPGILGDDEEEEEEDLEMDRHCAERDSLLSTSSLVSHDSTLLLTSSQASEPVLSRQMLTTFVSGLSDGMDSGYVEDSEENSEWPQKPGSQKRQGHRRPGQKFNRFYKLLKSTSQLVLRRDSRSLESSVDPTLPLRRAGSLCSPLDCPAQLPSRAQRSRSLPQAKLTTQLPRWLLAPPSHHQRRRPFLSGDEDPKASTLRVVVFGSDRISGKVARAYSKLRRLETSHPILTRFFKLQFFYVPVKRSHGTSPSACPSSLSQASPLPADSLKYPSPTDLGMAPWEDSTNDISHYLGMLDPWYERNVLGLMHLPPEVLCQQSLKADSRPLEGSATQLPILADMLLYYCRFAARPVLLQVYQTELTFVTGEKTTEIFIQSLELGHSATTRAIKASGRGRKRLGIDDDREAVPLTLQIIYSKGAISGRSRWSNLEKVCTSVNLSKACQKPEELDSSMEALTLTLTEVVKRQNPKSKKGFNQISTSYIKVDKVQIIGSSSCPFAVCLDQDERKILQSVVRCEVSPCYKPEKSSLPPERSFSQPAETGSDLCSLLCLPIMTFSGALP
Sequence of PI3Kalpha (P42337 whole entry, canonical isoform): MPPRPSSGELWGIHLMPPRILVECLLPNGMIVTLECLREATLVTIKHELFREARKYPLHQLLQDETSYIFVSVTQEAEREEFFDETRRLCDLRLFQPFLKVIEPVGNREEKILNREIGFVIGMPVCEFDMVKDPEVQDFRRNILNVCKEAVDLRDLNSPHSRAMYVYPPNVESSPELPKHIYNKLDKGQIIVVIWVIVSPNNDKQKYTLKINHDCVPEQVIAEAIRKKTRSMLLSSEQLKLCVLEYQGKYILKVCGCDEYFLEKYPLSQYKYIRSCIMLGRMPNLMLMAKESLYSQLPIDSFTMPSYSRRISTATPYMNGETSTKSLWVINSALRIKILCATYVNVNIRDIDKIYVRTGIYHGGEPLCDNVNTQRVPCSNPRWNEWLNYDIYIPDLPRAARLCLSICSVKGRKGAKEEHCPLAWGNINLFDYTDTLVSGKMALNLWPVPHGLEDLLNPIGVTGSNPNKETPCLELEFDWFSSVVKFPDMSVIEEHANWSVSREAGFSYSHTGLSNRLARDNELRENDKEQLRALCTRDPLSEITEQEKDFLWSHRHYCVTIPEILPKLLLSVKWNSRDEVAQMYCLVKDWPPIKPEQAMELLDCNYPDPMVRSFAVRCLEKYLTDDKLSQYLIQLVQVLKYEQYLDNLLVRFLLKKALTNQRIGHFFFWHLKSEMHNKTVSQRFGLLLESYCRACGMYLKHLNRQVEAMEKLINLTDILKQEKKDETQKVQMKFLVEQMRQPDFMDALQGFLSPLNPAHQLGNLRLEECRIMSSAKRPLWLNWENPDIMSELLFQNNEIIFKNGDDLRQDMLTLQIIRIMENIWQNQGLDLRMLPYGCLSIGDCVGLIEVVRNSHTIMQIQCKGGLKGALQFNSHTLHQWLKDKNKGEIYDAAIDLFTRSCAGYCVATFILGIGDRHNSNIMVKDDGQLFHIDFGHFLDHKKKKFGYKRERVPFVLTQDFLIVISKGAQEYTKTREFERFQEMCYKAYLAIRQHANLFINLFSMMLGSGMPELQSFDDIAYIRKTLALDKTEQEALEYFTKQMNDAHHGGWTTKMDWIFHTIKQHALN
Sequence of PI3Kalpha (P26450 whole entry partner, canonical isoform): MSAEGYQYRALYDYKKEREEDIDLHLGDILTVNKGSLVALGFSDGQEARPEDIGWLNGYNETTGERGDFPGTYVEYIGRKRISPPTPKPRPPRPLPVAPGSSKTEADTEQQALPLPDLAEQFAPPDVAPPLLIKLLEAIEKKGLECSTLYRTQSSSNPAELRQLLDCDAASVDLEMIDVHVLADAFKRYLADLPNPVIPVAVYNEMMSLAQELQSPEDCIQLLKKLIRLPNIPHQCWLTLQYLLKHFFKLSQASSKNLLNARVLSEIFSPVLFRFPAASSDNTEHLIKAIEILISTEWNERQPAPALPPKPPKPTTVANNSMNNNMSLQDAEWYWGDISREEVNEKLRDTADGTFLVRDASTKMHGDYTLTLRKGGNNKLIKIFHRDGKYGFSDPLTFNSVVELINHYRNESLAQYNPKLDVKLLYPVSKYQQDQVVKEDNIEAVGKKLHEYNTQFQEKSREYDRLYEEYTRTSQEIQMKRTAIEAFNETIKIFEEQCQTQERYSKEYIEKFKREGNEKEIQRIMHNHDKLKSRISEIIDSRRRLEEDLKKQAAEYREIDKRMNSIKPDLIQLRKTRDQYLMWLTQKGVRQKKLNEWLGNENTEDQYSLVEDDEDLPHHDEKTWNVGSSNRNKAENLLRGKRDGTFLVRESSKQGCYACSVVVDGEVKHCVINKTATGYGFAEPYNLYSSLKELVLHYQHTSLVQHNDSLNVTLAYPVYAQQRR

CC[C@H](Nc1ncnc2[nH]cnc12)c1nc2cccc(F)c2c(=O)n1-c1ccccc1 [Compound A, (S)-2-(1-(9H-purin-6-ylamino)propyl)-5-fluoro-3-phenylquinazolin-4(3H)-one]
EC50 (PI3Kγ): 3.89 µM | EC50 (PI3Kalpha): > 20 µM | CCL3 and CCL4 secretion by anti-IgM stimulated CLL cells [1]: effective suppression of chemokine secretion to levels nearing the control values | clinical activity (lymphadenopathy) ([2]; 50 to 350 mg BID, 28-day dosing period): decrease in lymphadenopathy | CCL3 plasma concentration ([2]; Day 28 of cycle 1, 50 to 350 mg BID, average (baseline 186)): 29 pg/mL | CCL4 plasma concentration ([2]; Day 28 of cycle 1, 50 to 350 mg BID, average (baseline 303)): 70 pg/mL | CXCL13 plasma concentration ([2]; Day 28 of cycle 1, 50 to 350 mg BID, average (baseline 316)): 40 pg/mL | % reduction of CCL3 ([2]; Day 28 vs baseline): 84% | % reduction of CCL4 ([2]; Day 28 vs baseline): 77% | % reduction of CXCL13 ([2]; Day 28 vs baseline): 87% | decrease of the concentration of CCL3, CCL4 and CXCL13 ([2]; first week of dosing, across all dose levels evaluated (50 to 350 mg BID)): 2 to 5 fold | change from predose to Day 28 of CCL3, CCL17 and TNF-alpha, responders vs non-responders [3]: significantly greater for individuals that responded to the drug than those that did not | TNF-alpha plasma concentration ([4]; Day 28 (pre-treatment 65)): 37 pg/mL | CCL17 plasma concentration ([4]; Day 28 (pre-treatment 194)): 60 pg/mL | CXCL13 plasma concentration ([4]; Day 28 (pre-treatment 437)): 227 pg/mL | CCL22 plasma concentration ([4]; Day 28 (pre-treatment 2593)): 1286 pg/mL | % reduction of CCL17 ([4]; Day 28 vs pre-treatment): 69% | % reduction of CCL22 ([4]; Day 28 vs pre-treatment): 50% | % reduction of CXCL13 ([4]; Day 28 vs pre-treatment): 48% | % reduction of TNF-alpha ([4]; Day 28 vs pre-treatment): 43% | clinical activity (tumor size) ([4]; FIG. 4a): reduction in tumor size | TNF-alpha plasma concentration ([5]; Day 28 (pre-treatment 41)): 19 pg/mL | CCL17 plasma concentration ([5]; Day 28 (pre-treatment 234)): 88 pg/mL | CXCL13 plasma concentration ([5]; Day 28 (pre-treatment 470)): 161 pg/mL | CCL22 plasma concentration ([5]; Day 28 (pre-treatment 2602)): 1166 pg/mL | % reduction of CCL17 ([5]; Day 28 vs pre-treatment): 62% | % reduction of CCL22 ([5]; Day 28 vs pre-treatment): 55% | % reduction of CXCL13 ([5]; Day 28 vs pre-treatment): 66% | % reduction of TNF-alpha ([5]; Day 28 vs pre-treatment): 54% | clinical activity (tumor size) ([5]; FIG. 4b): reduction in tumor size
